Literature values, collected in patent publication US7683052B2, “Crystalline polymorph of bazedoxifene acetate” (Wyeth, priority 2004, dated 2010).

Legend:
[1] = test system: ovariectomized rat; details: ovariectomized rat model of osteopenia
[2] = test system: MCF-7 cell line (human breast cancer cell line); details: MCF-7 human breast cancer cell line
[3] = test system: uterine response; details: preclinical models of uterine stimulation

In the case of `Cc1c(-c2ccc(O)cc2)n(Cc2ccc(OCCN3CCCCCC3)cc2)c2ccc(O)cc12` [bazedoxifene acetate, 1-[4-(2-azepan-1-yl-ethoxy)-benzyl]-2-(4-hydroxy-phenyl)-3-methyl-1H-indol-5-ol acetic acid], the “Effect on bone loss and cholesterol” value [1] is given as “estrogen agonist-like effect in preventing bone loss and reducing cholesterol”, the “Estrogen agonist/antagonist behaviour in MCF-7 cells” value [2] is given as “behaves as an estrogen antagonist” and the “Stimulation of uterine response” value [3] is given as “little or no stimulation of uterine response”.
